Source: patent publication US6737383B1, “Herbicidal oxadiazolidines” (priority 1999, dated 2004)

Columns and labels:
wild oat = assay: Test B pre/postemergence wild oat; type: in vivo, Avena fatua; conditions: for Plant response rating, Wild oats: scale of 0 to 10 where 0 is no effect and 10 is complete control
In short: (§1)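 Herbicidal effect was estimated by eye on a ten-point control scale after plants spent twelve to sixteen days in a greenhouse following soil or foliar treatment. Foliar sprays targeted plants at one to four leaves; all doses were formulated in a non-phytotoxic solvent with surfactant.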

giant foxtail = assay: Test B pre/postemergence giant foxtail; type: in vivo, Setaria faberii
In short: as §1

pigweed = assay: Test B pre/postemergence pigweed; type: in vivo, Amaranthus retroflexus; conditions: for Plant response rating, Redroot pigweed: scale of 0 to 10 where 0 is no effect and 10 is complete control
In short: as §1

rice = assay: Test B flood test rice; type: in vivo, Oryza sativa
In short: (§2)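 Plants were grown to the 2-leaf stage before treatment with test chemical, then held in a greenhouse for twelve to sixteen days. Injury was visually rated against untreated controls on a 0–10 scale, where 0 is no effect and 10 is complete control.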

corn = assay: Test B pre/postemergence corn; type: in vivo, Zea mays
In short: as §1

wheat = assay: Test B pre/postemergence wheat; type: in vivo, Triticum aestivum; conditions: for Plant response rating, Wheat: scale of 0 to 10 where 0 is no effect and 10 is complete control
In short: as §1

sugar beet = assay: Test B pre/postemergence sugar beet; type: in vivo, Beta vulgaris; conditions: for Plant response rating, Sugarbeets: scale of 0 to 10 where 0 is no effect and 10 is complete control
In short: as §1

duck salad = assay: Test B flood test duck salad; type: in vivo, Heteranthera limosa
In short: as §2

rape = assay: Test B pre/postemergence rape; type: in vivo, Brassica napus; conditions: for Plant response rating, Rape: scale of 0 to 10 where 0 is no effect and 10 is complete control
In short: as §1

soybean = assay: Test B pre/postemergence soybean; type: in vivo, Glycine max; conditions: for Plant response rating, Soybean: scale of 0 to 10 where 0 is no effect and 10 is complete control
In short: as §1

purple nutsedge = assay: Test B pre/postemergence purple nutsedge; type: in vivo, Cyperus rotundus; conditions: for Plant response rating, Nutsedge: scale of 0 to 10 where 0 is no effect and 10 is complete control
In short: as §1

blackgrass = assay: Test B pre/postemergence blackgrass; type: in vivo, Alopecurus myosuroides
In short: as §1

bamyardgrass = assay: Test B flood test barnyardgrass; type: in vivo, Echinochloa crus-galli
In short: as §2

surinam grass = assay: Test B pre/postemergence surinam grass; type: in vivo, Brachiaria decumbens
In short: as §1

cocklebur = assay: Test B pre/postemergence cocklebur; type: in vivo, Xanthium strumarium
In short: as §1

crabgrass = assay: Test B pre/postemergence crabgrass; type: in vivo, Digitaria sanguinalis
In short: as §1

smallflower flatsedge = assay: Test B flood test smallflower flatsedge; type: in vivo, Cyperus difformis
In short: as §2

morningglory = assay: Test B pre/postemergence morningglory; type: in vivo, Ipomoea hederacea; conditions: for Plant response rating, Morningglory: scale of 0 to 10 where 0 is no effect and 10 is complete control
In short: as §1

velvetleaf = assay: Test B pre/postemergence velvetleaf; type: in vivo, Abutilon theophrasti; conditions: for Plant response rating, Velvetleaf: scale of 0 to 10 where 0 is no effect and 10 is complete control
In short: as §1

[1] = Postemergence, Rate 250 g/ha, scale 0 to 10
[2] = Preemergence, Rate 250 g/ha, scale 0 to 10, 0 is no effect, 10 is complete control
[3] = Preemergence, Rate 500 g/ha, scale 0 to 10, 0 is no effect, 10 is complete control
[4] = Rate 62 g/ha, Postemergence, scale 0 to 10 (0 no effect, 10 complete control)
[5] = Rate 125 g/ha, Postemergence, scale 0 to 10, 0 is no effect, 10 is complete control
[6] = Postemergence, Rate 500 g/ha, scale of 0 to 10 where 0 is no effect and 10 is complete control
[7] = Preemergence, Rate 62 g/ha, scale of 0 to 10 where 0 is no effect and 10 is complete control
[8] = Preemergence, Rate 125 g/ha, scale of 0 to 10 where 0 is no effect and 10 is complete control
[9] = Rate 62 g/ha, flood test species, Pre-emergence, visual evaluation after twelve to sixteen days
[10] = Rate 125 g/ha, under heading Pre-emergence, flood test species, visual evaluation after twelve to sixteen days
[11] = Rate 250 g/ha, Pre-emergence (flood test species), scale 0 to 10, 0 is no effect, 10 is complete control
[12] = Rate 500 g/ha, Pre-emergence, flood test species, scale 0 to 10 (0 no effect, 10 complete control)

COC(CCl)n1c(=O)on(C(=O)N(c2ccc(Cl)cc2)C(C)C)c1=O (stereo not shown) [Compound 458]
0: Plant response rating, Wild oats (wild oat; Preemergence, Rate 62 g/ha) | Wild oats plant response rating (wild oat; [4]) | Wild oats plant response rating (wild oat; [5]) | Redroot pigweed plant response rating (pigweed; [1]) | Plant response rating, Redroot pigweed (pigweed; Preemergence, Rate 62 g/ha) | Redroot pigweed plant response rating (pigweed; [4]) | Redroot pigweed plant response rating (pigweed; [5]) | Plant response rating, Rice (0 to 10 scale, 0 is no effect, 10 is complete control) (rice; [9]) | Rice plant response rating (0 to 10 scale, 0 is no effect, 10 is complete control) (rice; [10]) | Rice plant response rating (rice; [11]) | Rice plant response rating (rice; [12]) | Plant response rating, Corn (corn; [7]) | Plant response rating, Corn (corn; [8]) | Corn plant response rating (corn; [2]) | Corn plant response rating (corn; [4]) | Corn plant response rating (corn; [5]) | Plant response rating, Wheat (wheat; Preemergence, Rate 62 g/ha) | Plant response rating, Wheat (wheat; Preemergence, Rate 125 g/ha) | Wheat plant response rating (wheat; [2]) | Wheat plant response rating (wheat; [4]) | Wheat plant response rating (wheat; [5]) | Sugarbeets plant response rating (sugar beet; [1]) | Plant response rating, Sugarbeets (sugar beet; Preemergence, Rate 62 g/ha) | Plant response rating, Sugarbeets (sugar beet; Preemergence, Rate 125 g/ha) | Sugarbeets plant response rating (sugar beet; [4]) | Sugarbeets plant response rating (sugar beet; [5]) | Plant response rating, Ducksalad (0 to 10 scale, 0 is no effect, 10 is complete control) (duck salad; [9]) | Ducksalad plant response rating (0 to 10 scale, 0 is no effect, 10 is complete control) (duck salad; [10]) | Ducksalad plant response rating (duck salad; [11]) | Ducksalad plant response rating (duck salad; [12]) | Rape plant response rating (rape; [1]) | Plant response rating, Rape (rape; Preemergence, Rate 62 g/ha) | Plant response rating, Rape (rape; Preemergence, Rate 125 g/ha) | Rape plant response rating (rape; [4]) | Rape plant response rating (rape; [5]) | Plant response rating, Soybean (soybean; Preemergence, Rate 62 g/ha) | Plant response rating, Soybean (soybean; Preemergence, Rate 125 g/ha) | Soybean plant response rating (soybean; [2]) | Soybean plant response rating (soybean; [4]) | Nutsedge plant response rating (purple nutsedge; [1]) | Plant response rating, Nutsedge (purple nutsedge; Preemergence, Rate 62 g/ha) | Plant response rating, Nutsedge (purple nutsedge; Preemergence, Rate 125 g/ha) | Nutsedge plant response rating (purple nutsedge; [2]) | Nutsedge plant response rating (purple nutsedge; [3]) | Nutsedge plant response rating (purple nutsedge; [4]) | Nutsedge plant response rating (purple nutsedge; [5]) | Blackgrass plant response rating (blackgrass; [4]) | Plant response rating, Barnyardgrass (0 to 10 scale, 0 is no effect, 10 is complete control) (bamyardgrass; [9]) | Barnyardgrass plant response rating (0 to 10 scale, 0 is no effect, 10 is complete control) (bamyardgrass; [10]) | Barnyardgrass plant response rating (bamyardgrass; [11]) | Barnyardgrass plant response rating (bamyardgrass; [12]) | B. signalgrass plant response rating (surinam grass; Postemergence, Rate 250 g/ha, scale 0 to 10, 0 no effect, 10 complete control) | B. signalgrass plant response rating (surinam grass; [4]) | B. signalgrass plant response rating (surinam grass; [5]) | Cocklebur plant response rating (cocklebur; [1]) | Plant response rating, Cocklebur (cocklebur; [7]) | Plant response rating, Cocklebur (cocklebur; [8]) | Cocklebur plant response rating (cocklebur; [2]) | Cocklebur plant response rating (cocklebur; [3]) | Cocklebur plant response rating (cocklebur; [4]) | Cocklebur plant response rating (cocklebur; [5]) | Plant response rating, S. Flatsedge (0 to 10 scale, 0 is no effect, 10 is complete control) (smallflower flatsedge; [9]) | S. Flatsedge plant response rating (0 to 10 scale, 0 is no effect, 10 is complete control) (smallflower flatsedge; [10]) | S. Flatsedge plant response rating (smallflower flatsedge; [11]) | S. Flatsedge plant response rating (smallflower flatsedge; [12]) | Plant response rating, Morningglory (morningglory; Preemergence, Rate 62 g/ha) | Plant response rating, Morningglory (morningglory; Preemergence, Rate 125 g/ha) | Morningglory plant response rating (morningglory; [2]) | Morningglory plant response rating (morningglory; [3]) | Morningglory plant response rating (morningglory; [4]) | Morningglory plant response rating (morningglory; [5]) | Velvetleaf plant response rating (velvetleaf; [1]) | Plant response rating, Velvetleaf (velvetleaf; Preemergence, Rate 62 g/ha) | Plant response rating, Velvetleaf (velvetleaf; Preemergence, Rate 125 g/ha) | Velvetleaf plant response rating (velvetleaf; [4]) | Velvetleaf plant response rating (velvetleaf; [5])
10: Wild oats plant response rating (wild oat; [3]) | Giant foxtail plant response rating (giant foxtail; [2]) | Giant foxtail plant response rating (giant foxtail; [3]) | Crabgrass plant response rating (crabgrass; [3])
6: Redroot pigweed plant response rating (pigweed; [2]) | Plant response rating, Blackgrass (blackgrass; [7]) | Plant response rating, Crabgrass (crabgrass; [7]) | Plant response rating, Crabgrass (crabgrass; [8]) | Velvetleaf plant response rating (velvetleaf; [3])
4: Rape plant response rating (rape; [3]) | Plant response rating, B. signalgrass (surinam grass; [7]) | Plant response rating, B. signalgrass (surinam grass; [8]) | B. signalgrass plant response rating (surinam grass; [2]) | B. signalgrass plant response rating (surinam grass; [3])
8: Redroot pigweed plant response rating (pigweed; [3]) | Sugarbeets plant response rating (sugar beet; [3]) | Blackgrass plant response rating (blackgrass; [1]) | Blackgrass plant response rating (blackgrass; [6]) | Plant response rating, Blackgrass (blackgrass; [8]) | Blackgrass plant response rating (blackgrass; [2]) | Crabgrass plant response rating (crabgrass; [1]) | Crabgrass plant response rating (crabgrass; [5])
3: Wild oats plant response rating (wild oat; [2]) | Plant response rating, Redroot pigweed (pigweed; Preemergence, Rate 125 g/ha) | Corn plant response rating (corn; [3]) | Rape plant response rating (rape; [2]) | Blackgrass plant response rating (blackgrass; [5]) | B. signalgrass plant response rating (surinam grass; [6]) | Morningglory plant response rating (morningglory; [1])
9: Giant foxtail plant response rating (giant foxtail; [1]) | Giant foxtail plant response rating (giant foxtail; [6]) | Plant response rating, Giant foxtail (giant foxtail; [7]) | Plant response rating, Giant foxtail (giant foxtail; [8]) | Giant foxtail plant response rating (giant foxtail; [5]) | Blackgrass plant response rating (blackgrass; [3]) | Crabgrass plant response rating (crabgrass; [6]) | Crabgrass plant response rating (crabgrass; [2])
2: Wild oats plant response rating (wild oat; [1]) | Plant response rating, Wild oats (wild oat; Preemergence, Rate 125 g/ha) | Corn plant response rating (corn; [1]) | Corn plant response rating (corn; [6]) | Wheat plant response rating (wheat; [1]) | Wheat plant response rating (wheat; [3]) | Sugarbeets plant response rating (sugar beet; [2]) | Soybean plant response rating (soybean; [1]) | Soybean plant response rating (soybean; [3]) | Cocklebur plant response rating (cocklebur; [6]) | Crabgrass plant response rating (crabgrass; [4]) | Velvetleaf plant response rating (velvetleaf; [2])
1: Soybean plant response rating (soybean; [5])
7: Giant foxtail plant response rating (giant foxtail; [4])
